Laboratory results taken from patent US20080306067A1, “Modulators of Chemokine Receptor Activity” (priority 2005, published 2008).

Experiments:
[1] = target: T1, human CCR-3 (Homo sapiens, UniProt P51677); assay: binding of [125I]-human eotaxin to human CCR-3 (SPA, membranes of RBL-2H3 cells expressing CCR3); conditions: 4 hours at room temperature, read-out: IC50 (inhibition of binding of eotaxin to CCR-3)
T1 construct: expressed in transfected cells; membrane preparation
T1 sequence (P51677 1-355): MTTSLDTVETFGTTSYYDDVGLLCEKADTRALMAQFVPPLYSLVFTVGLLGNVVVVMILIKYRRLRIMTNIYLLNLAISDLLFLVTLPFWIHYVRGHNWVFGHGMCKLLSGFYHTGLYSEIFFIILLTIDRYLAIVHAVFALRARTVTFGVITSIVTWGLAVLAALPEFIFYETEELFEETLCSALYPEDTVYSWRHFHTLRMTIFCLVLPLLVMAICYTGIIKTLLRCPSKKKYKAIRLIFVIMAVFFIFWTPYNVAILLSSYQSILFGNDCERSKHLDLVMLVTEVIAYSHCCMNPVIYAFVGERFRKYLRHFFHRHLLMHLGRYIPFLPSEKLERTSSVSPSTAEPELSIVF
Protocol: In this assay the effect of the compounds of the present invention on the binding of human eotaxin to human CCR-3 is determined. Recombinant cells expressing human CCR-3 are captured by wheatgerm agglutinin (WGA) polyvinyltoluidene (PVT) SPA beads (available from Amersham), through a specific interaction between the WGA and carbohydrate residues of glycoproteins on the surface of the cells. [^125I]-human eotaxin (available from Amersham) binds specifically to CCR-3 receptors bringing the [^125I]-human eotaxin in close proximity to the SPA beads. Emitted â-particles from the [^125I]-human eotaxin excite, by its proximity, the fluorophore in the beads and produce light.
Preparation of Assay Buffer. 5.96 g HEPES and 7.0 g sodium chloride are dissolved in distilled H2O and 1M aq. CaCl2 (1 ml) and 1M aq. MgCl2 (5 ml) are added. The pH is adjusted to 7.6 with NaOH and the solution made to a final volume of 1 L using distilled H2O. 5 g of bovine serum albumin and 0.1 g NaN3 are dissolved in the solution and the resulting buffer stored at 4° C. […]
The assay is performed in a final volume of 250 μl per well of an Optiplate™ microplate (ex Canberra Packard). […] The resulting scintillations are counted using a Canberra Packard TopCount™ scintillation counter, each well being counted for 1 minute. […]

[2] = target: alpha-1 adrenergic receptor; assay: alpha-1 adrenergic receptor radioligand binding assay ([125I]-HEAT, rat cerebral cortex membranes); conditions: radioligand used at 40 pM
Protocol: The inhibitory properties of the compounds of the present invention on binding of the alpha-1 adrenergic receptor can be determined in the following assay:
Cerebral cortices from male Sprague-Dawley rats (175-200 g) are dissected and homogenised in 10 volumes of ice cold 0.32 M sucrose (containing 1 mM MgCl2 dihydrate and 1 mM K2HPO4) with a glass/Teflon homogeniser. The membranes are centrifuged at 1000×g for 15 minutes, the pellet discarded and the centrifugation repeated. The supernatants are pooled and centrifuged at 18,000×g for 15 minutes. The pellet is osmotically shocked in 10 volumes of H2O and kept on ice for 30 minutes. The suspension is centrifuged at 39,000×g for 20 minutes, resuspended in Krebs-Henseleit buffer pH 7.4 (1.17 mM MgSO4 anhydrous, 4.69 mM KCl, 0.7 mM K2HPO4 anhydrous, 0.11 M NaCl, 11 mM D-glucose and 25 mM NaHCO3) containing 20 mM Tris, and kept for 2 days at −20° C. […]
The resulting membranes are subjected to a radioligand binding assay. […] Following drying of the plates for 3 h. at 50° C., 40 μl of Microscint 20 is added to each well, the plates incubated at room temperature for a further 20 minutes and the retained radioactivity quantified in a Packard TopCount NXT™ scintillation counter. […]

IC50 [1]	Kd [2]	SMILES
~6 nM		CN(CCCCNC(=O)Nc1cccc(-c2nnnn2C)c1)Cc1ccc(F)cc1 [Example 1, 1-{4-[(4-Fluorobenzyl)-methylamino]butyl}-3-[3-(1-methyl-1H-tetrazol-5-yl)phenyl]-urea]
	0.0589 ± 0.0187 nM	O=C1c2ccccc2CCC1CNCCc1ccc(O)c(I)c1 (centres unmarked) [[^125I]-HEAT]
